Experimental findings from US20210355107A1, “MULTI-SUBSTITUTED PYRIDONE DERIVATIVES AND MEDICAL USE THEREOF” (Beijing Yuezhikangtai Biomedicines Co., Ltd., priority 2018, published 2021) are described below.

The target of the test is T1, Ba/F3 Axl cells (Homo sapiens, UniProt P30530).
T1 sequence (P30530 1-894): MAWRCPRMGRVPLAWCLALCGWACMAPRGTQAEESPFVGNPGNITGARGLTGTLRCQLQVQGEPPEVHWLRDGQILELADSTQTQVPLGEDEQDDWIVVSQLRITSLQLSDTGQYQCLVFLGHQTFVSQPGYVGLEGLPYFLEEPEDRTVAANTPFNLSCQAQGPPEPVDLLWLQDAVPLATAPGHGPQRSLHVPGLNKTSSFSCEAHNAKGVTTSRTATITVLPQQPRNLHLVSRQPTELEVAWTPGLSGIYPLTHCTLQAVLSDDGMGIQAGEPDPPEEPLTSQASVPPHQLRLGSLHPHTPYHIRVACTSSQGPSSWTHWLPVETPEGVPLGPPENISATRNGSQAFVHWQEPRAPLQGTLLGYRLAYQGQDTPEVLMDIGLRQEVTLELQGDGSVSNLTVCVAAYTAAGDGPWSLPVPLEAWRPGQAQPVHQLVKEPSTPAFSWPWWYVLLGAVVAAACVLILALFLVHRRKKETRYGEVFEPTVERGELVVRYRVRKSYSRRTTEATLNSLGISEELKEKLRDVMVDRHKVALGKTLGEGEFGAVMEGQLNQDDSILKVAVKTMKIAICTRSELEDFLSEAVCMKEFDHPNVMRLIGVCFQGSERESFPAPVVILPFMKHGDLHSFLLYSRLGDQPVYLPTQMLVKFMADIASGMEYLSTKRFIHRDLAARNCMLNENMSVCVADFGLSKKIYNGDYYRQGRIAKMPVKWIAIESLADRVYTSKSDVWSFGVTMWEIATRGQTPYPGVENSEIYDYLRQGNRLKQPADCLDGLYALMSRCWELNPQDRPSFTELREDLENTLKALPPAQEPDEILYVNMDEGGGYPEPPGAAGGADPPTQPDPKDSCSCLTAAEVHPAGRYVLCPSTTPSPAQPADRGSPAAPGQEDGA
As to the kind of experiment: Ba/F3 Axl cell proliferation, CellTiter-Glo Luminescent Cell Viability Assay. It is filed as cell-based. The following applies: 100 ng/mL rhGas6, 72 h incubation, read-out: IC50 (nM) against Ba/F3 Axl cells. As for the experimental part: Test method: the inhibitory activity of the compounds against Ba/F3 Axl cell proliferation was evaluated using CellTiter-Glo® Luminescent Cell Viability Assay Kit (Promega).
Test procedures: when thawing Ba/F3 Axl cells, the cell cryopreservation tube was shaken rapidly in a water bath at 37° C. to thaw the cells in 1 min. The cell suspension after thawing was mixed with RPMI1640 culture medium containing 10% FBS and centrifuged for 5 min at 1000 rpm, and the supernatant was discarded. The cell pellet was suspended in 5 mL of complete culture medium. […] Cell passage was performed at a cell density of 2×10^6 viable cells/mL. When the cells were passaged, the original cell suspension was directly made uniform by pipetting. 1/10 (namely 0.5 mL) of the cell suspension was kept, added with 4.5 mL of new complete culture medium and then made uniform by pipetting. The cell culture flask was then placed in a cell incubator for further culturing. Cell plating was performed when the cell confluence reached 2×10^6 viable cells/mL again. With reference to the method for cell passage, 1/10 (namely 0.5 mL) of the cell suspension was kept for further culturing when the cells were plated, and the remaining cell suspension was placed in a 15 mL centrifuge tube. The supernatant was discarded after centrifugation, and 5 mL of complete culture medium was used to resuspend the cells. […] A control group that contains no cell or compound but only complete culture medium and a control group that contains no compound but cells were set. The cell plates were incubated overnight in a cell incubator. […] The cell plates were then incubated in the cell incubator for 72 h. […] The cell plate was left to stand at room temperature for 20 min to stabilize luminescence signals, and the luminescence value of each well was scanned by a Spectramax M3 multi-functional microplate reader (Molecular Devices) at full wavelength.
Test samples: example compounds of the present invention and bemcentinib (positive control compound).
Data analysis: cell viability was calculated for compounds at various concentrations using the following formula:
Cell viability(%)=(Lumtest compound−Lumculture solution control)/(Lumcell control−Lumculture solution control)×100%,
where Lum refers to the luminescence value of each well of the test compound plate read by the multi-functional microplate reader.
The data were analyzed using GraphPad Prism 7.0 software, fitted with nonlinear S-curve regression to give dose-response curves, and IC50 values were calculated therefrom.
In general terms: Cellular ATP, detected with luciferase, serves as a proxy for viable cell number.
As to `CCn1cc(-c2cnc(N)c(-c3ccc(NC(=O)c4cn(C(C)C)c(C#N)c(-c5ccc(F)cc5)c4=O)cc3F)c2)cn1` [Example 3, N-(4-(2-amino-5-(1-ethyl-1H-pyrazol-4-yl)pyridin-3-yl)-3-fluoro-phenyl)-6-cyano-5-(4-fluorophenyl)-1-isopropyl-4-oxo-1,4-dihydropyridine-3-carboxamide], the GI50 stood at 0.29 nM.
The same measure for `CC(C)n1cc(C(=O)Nc2ccc(-c3cc(-c4cnn(C)c4)cnc3N)c(F)c2)c(=O)c(-c2ccc(F)cc2)c1C#N` [Example 4, N-(4-(2-amino-5-(1-methyl-1H-pyrazol-4-yl)pyridin-3-yl)-3-fluorophenyl)-6-cyano-5-(4-fluorophenyl)-1-isopropyl-4-oxo-1,4-dihydropyridine-3-carboxamide]: 0.57 nM; for `CC(C)n1cc(C(=O)Nc2cc(F)c(-c3cc(-c4cnn(C)c4)cnc3N)cc2F)c(=O)c(-c2ccc(F)cc2)c1C#N` [Example 6, N-(4-(2-amino-5-(1-methyl-1H-pyrazol-4-yl)pyridin-3-yl)-2,5-difluorophenyl)-6-cyano-5-(4-fluorophenyl)-1-isopropyl-4-oxo-1,4-dihydropyridine-3-carboxamide]: 0.49 nM.
`COc1cc2nccc(Oc3ccc(NC(=O)c4cn(C)c(C#N)c(-c5ccc(F)cc5)c4=O)cc3F)c2cc1OC` [Example 21, 6-cyano-N-(4-((6,7-dimethoxyquinolin-4-yl)oxy)-3-fluoro-phenyl)-5-(4-fluorophenyl)-1-methyl-4-oxo-1,4-dihydropyridine-3-carboxamide]: the GI50 was found to be 0.29 nM.
As to `COc1cc2nccc(Oc3ccc(NC(=O)c4cn(C(C)C)c(C#N)c(-c5ccc(F)cc5)c4=O)cc3F)c2cc1OC` [Example 24, 6-cyano-N-(4-((6,7-dimethoxyquinolin-4-yl)oxy)-3-fluoro-phenyl)-5-(4-fluorophenyl)-1-isopropyl-4-oxo-1,4-dihydropyridine-3-carboxamide], the GI50 amounted to 0.36 nM.
As for `CCn1cc(-c2cnc(N)c(-c3cc(F)c(NC(=O)c4cn(C(C)C)c(C#N)c(-c5ccc(F)cc5)c4=O)cc3F)c2)cn1` [Example 33, N-(4-(2-amino-5-(1-ethyl-1H-pyrazol-4-yl)pyridin-3-yl)-2,5-difluorophenyl)-6-cyano-5-(4-fluorophenyl)-1-isopropyl-4-oxo-1,4-dihydropyridine-3-carboxamide], the GI50 amounted to 0.23 nM.
On to `[2H]C([2H])([2H])n1cc(-c2cnc(N)c(-c3cc(F)c(NC(=O)c4cn(C(C)C)c(C#N)c(-c5ccc(F)cc5)c4=O)cc3F)c2)cn1` [Example 34, N-(4-(2-amino-5-(1-methyl-d3-1H-pyrazol-4-yl)pyridin-3-yl)-2,5-difluorophenyl)-6-cyano-5-(4-fluorophenyl)-1-isopropyl-4-oxo-1,4-dihydropyridine-3-carboxamide], for which the GI50 was 0.28 nM.
